These results are taken from paper PMC4685510, “A Cell Biologist’s Field Guide to Aurora Kinase Inhibitors” (Frontiers in Oncology, 2015).

The structures appear in SMILES notation.

Common to all, as to assay: biochemical
What all share (type): biochemical

For assay [1], the target named is T1, 363 human kinases (including Aurora A/B/C) (Homo sapiens, UniProt Q8NE63).
T1 sequence (Q8NE63 1-616): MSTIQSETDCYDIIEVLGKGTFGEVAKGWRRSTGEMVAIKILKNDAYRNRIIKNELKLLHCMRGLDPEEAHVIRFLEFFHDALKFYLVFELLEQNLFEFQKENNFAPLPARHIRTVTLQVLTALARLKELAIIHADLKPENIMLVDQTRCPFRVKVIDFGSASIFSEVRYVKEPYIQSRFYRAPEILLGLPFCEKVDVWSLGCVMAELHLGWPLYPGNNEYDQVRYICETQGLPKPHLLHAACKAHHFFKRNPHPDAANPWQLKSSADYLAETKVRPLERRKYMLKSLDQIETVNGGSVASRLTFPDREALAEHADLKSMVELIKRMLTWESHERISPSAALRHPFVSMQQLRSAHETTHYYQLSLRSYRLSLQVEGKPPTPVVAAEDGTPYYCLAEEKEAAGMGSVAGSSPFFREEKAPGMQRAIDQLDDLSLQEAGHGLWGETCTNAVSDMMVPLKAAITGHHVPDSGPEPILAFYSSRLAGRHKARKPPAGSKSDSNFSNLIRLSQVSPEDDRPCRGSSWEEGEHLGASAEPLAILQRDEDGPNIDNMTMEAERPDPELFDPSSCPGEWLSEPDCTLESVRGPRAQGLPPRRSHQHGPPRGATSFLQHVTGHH
Conditions: HIPK4; for remaining activity at 0.1 µM: 100 nM; for remaining activity at 0.1 µM / remaining activity at 0.5 µM: read-out: % Enzyme Activity (relative to DMSO controls).
Text: (§1) However, the Aurora A/B selectivity ratios derived from our in vitro and in vivo data can be compared to prioritize inhibitors.

In assay [2] the target is T2, 363 human kinases (including Aurora A/B/C) (Homo sapiens, UniProt Q8NG66).
T2 sequence (Q8NG66 1-645): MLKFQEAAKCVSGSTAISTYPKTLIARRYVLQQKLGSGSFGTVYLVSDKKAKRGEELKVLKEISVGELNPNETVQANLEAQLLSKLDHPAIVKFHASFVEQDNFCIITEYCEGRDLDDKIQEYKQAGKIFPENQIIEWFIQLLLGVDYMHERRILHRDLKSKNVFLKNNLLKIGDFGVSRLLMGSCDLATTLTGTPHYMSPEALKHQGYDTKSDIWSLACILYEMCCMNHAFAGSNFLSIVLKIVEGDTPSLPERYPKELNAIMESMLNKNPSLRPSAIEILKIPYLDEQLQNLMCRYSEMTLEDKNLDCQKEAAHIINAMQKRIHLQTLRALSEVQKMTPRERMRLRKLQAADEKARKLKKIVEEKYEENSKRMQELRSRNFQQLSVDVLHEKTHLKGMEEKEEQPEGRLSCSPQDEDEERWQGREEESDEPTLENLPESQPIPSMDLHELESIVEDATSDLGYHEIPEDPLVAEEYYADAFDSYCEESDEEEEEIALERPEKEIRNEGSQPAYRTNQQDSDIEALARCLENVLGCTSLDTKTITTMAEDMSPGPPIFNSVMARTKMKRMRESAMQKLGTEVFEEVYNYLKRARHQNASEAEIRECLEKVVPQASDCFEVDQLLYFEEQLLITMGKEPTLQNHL
The conditions noted are these: NEK11; for remaining activity at 0.1 µM: 100 nM; for remaining activity at 0.1 µM / remaining activity at 0.5 µM: read-out: % Enzyme Activity (relative to DMSO controls).
Text: as §1

Assay [3] deals with 363 human kinases (including Aurora A/B/C) (Homo sapiens, UniProt Q15418). Conditions: RSK1; for remaining activity at 0.1 µM: 100 nM; for remaining activity at 0.1 µM / remaining activity at 0.5 µM: read-out: % Enzyme Activity (relative to DMSO controls).
363 human kinases (including Aurora A/B/C) (Homo sapiens, UniProt Q15418), sequence (Q15418 whole entry): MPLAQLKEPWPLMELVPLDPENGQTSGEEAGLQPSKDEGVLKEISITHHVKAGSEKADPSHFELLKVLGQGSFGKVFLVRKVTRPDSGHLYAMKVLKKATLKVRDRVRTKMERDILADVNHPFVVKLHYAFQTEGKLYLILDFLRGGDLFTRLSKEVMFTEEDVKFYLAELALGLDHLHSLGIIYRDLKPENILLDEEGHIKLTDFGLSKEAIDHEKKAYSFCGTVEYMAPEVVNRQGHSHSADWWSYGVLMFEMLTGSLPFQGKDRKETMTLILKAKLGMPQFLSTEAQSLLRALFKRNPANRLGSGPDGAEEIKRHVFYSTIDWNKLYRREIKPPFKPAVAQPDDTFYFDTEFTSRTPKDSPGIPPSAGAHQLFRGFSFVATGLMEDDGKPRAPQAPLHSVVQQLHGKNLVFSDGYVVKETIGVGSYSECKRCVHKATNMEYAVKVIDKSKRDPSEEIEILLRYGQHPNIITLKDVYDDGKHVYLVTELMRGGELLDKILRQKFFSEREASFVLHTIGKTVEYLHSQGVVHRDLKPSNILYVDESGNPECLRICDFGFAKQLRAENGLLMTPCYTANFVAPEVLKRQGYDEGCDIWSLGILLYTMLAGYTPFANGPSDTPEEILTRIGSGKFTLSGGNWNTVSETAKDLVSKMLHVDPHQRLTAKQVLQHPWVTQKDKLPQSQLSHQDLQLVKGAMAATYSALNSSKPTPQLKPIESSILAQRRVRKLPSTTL
Text: as §1
For assay [4], the target named is 363 human kinases (including Aurora A/B/C) (Homo sapiens, UniProt Q16288). The conditions noted are these: TRKC; for remaining activity at 0.1 µM: 100 nM.
363 human kinases (including Aurora A/B/C) (Homo sapiens, UniProt Q16288), sequence (Q16288 32-839): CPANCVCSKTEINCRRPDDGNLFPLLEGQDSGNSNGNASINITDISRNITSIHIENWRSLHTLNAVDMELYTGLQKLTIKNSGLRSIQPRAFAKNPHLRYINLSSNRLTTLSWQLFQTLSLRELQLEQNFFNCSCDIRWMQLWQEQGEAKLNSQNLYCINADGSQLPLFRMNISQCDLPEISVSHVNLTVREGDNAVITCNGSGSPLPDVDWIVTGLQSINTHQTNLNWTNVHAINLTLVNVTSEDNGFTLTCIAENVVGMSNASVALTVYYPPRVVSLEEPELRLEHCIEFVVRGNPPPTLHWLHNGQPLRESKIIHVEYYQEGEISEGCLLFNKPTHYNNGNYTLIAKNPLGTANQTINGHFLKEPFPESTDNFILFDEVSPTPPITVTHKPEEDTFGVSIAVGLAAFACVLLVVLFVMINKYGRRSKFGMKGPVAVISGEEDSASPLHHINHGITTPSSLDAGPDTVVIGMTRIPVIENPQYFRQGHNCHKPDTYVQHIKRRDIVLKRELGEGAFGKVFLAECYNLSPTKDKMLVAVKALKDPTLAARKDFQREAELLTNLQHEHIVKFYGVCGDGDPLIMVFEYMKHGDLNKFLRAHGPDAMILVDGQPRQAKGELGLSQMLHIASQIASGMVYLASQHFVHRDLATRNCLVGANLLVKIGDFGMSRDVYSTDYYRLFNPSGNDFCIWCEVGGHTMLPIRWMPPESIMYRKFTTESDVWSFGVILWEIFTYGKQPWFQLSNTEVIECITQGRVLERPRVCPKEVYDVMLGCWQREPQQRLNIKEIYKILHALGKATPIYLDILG
Text: as §1
The target in assay [5] is T3, 363 human kinases (including Aurora A/B/C) (Homo sapiens, UniProt P52564).
T3 sequence (P52564 1-334): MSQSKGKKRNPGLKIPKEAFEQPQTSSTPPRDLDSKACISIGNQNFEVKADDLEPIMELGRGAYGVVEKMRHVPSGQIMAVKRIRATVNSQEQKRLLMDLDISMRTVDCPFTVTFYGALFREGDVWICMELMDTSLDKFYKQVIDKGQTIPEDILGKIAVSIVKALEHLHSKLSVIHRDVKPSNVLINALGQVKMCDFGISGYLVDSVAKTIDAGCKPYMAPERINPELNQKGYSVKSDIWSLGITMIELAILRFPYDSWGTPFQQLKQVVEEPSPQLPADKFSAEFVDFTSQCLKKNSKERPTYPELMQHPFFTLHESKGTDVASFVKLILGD
Conditions: MKK6; for remaining activity at 0.1 µM: 100 nM; for remaining activity at 0.1 µM / remaining activity at 0.5 µM: read-out: % Enzyme Activity (relative to DMSO controls).
Text: as §1

The target in assay [6] is T4, 363 human kinases (including Aurora A/B/C) (Homo sapiens, UniProt Q8IVH8).
T4 sequence (Q8IVH8 1-894): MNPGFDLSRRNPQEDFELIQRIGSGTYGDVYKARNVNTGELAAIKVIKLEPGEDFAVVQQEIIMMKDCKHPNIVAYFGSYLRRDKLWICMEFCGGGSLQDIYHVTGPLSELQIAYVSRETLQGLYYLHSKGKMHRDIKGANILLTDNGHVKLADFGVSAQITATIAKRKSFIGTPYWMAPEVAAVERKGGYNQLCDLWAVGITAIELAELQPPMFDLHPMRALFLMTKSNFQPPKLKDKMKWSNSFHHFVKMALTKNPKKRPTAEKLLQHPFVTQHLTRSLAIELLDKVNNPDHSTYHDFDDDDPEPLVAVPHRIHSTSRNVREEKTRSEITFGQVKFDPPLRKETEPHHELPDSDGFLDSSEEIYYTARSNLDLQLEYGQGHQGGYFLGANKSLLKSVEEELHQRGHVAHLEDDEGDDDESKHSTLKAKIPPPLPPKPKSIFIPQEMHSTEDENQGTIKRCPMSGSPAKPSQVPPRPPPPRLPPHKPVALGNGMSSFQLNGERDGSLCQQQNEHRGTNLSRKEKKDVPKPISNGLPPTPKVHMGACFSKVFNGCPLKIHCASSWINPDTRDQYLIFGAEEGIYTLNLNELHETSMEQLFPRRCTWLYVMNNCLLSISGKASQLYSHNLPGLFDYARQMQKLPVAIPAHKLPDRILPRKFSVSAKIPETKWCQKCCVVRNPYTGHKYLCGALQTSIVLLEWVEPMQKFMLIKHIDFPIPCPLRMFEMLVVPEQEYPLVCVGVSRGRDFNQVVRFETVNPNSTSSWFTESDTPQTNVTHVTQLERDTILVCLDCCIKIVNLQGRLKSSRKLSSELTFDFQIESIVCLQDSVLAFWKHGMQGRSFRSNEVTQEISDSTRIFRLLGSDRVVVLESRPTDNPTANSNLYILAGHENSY
The conditions noted are these: GLK/MAP4K3; for remaining activity at 0.1 µM: 100 nM; for remaining activity at 0.1 µM / remaining activity at 0.5 µM: read-out: % Enzyme Activity (relative to DMSO controls).
Text: as §1

The mark [7] stands for this setting: read-out: % Enzyme Activity (relative to DMSO controls).

As for `CCn1cc(-c2ccnc3[nH]c(-c4cccc(CN(C)C)c4)cc23)c(-c2ccc(NC(=O)N(C)C)cc2)n1` [GSK1070916], the remaining activity at 0.1 µM in assay [1] worked out at 86.9%; in assay [2], 77.7%; in assay [3] it was 90%; in assay [4] (setting [7]), 78.6%; in assay [5], 85.3%; in assay [6], 88.3%.

On to `O=C(O)[C@]1(Cc2cccc(Nc3nccs3)n2)CC[C@@H](Oc2cccc(Cl)c2F)CC1` [MK-5108], for which the remaining activity at 0.1 µM is 24.4% in assay [1]; 86.5% in assay [2]; 99.1% in assay [3]; 0.99% in assay [4] (setting [7]); 95.4% in assay [5]; 103% in assay [6]. The remaining activity at 0.5 µM in assay [1] (500 nM) worked out at 5.4%; in assay [2] (500 nM) it was 73.9%; in assay [3] (500 nM) it was 91.2%; in assay [5] (500 nM), 76.7%; in assay [6] (500 nM) it was 82.7%.

As to `O=C(c1cccc(Cl)c1F)N1CCN(Cc2cccc(Nc3nccs3)n2)CC1` [MK-8745], the “% Enzyme Activity (relative to DMSO controls)” value in assay [1] (500 nM) is 76.34%; in assay [2] (500 nM), 75.49%; in assay [3] (500 nM), 93.60%; in assay [4] (500 nM) it was 3.01%; in assay [5] (500 nM), 66.22%; in assay [6] (500 nM), 88.41%. In addition, the remaining activity at 0.5 µM was determined as 78.7% in assay [1] (500 nM); 76.6% in assay [2] (500 nM); 95.8% in assay [3] (500 nM); 3.12% in assay [4] (500 nM, read-out: % Enzyme Activity (relative to DMSO controls)); 68% in assay [5] (500 nM); 88.7% in assay [6] (500 nM).
